Laboratory results reported in article PMC12298815 (Pharmaceutics, 2025).
Like-named read-outs stand apart in the source and are kept apart here.

Columns and labels:
[1] = In vivo pharmacokinetics in rats; details: rat; for AUC(0-inf): read-out: AUCinf of DT; for AUC(0-t): read-out: AUClast of DT; for half-life: read-out: T1/2 of DT (converted)
Description: Pharmacokinetic parameters were calculated using a non-compartmental analysis model with WinNonlin® software version 5.3 (Pharsight Corp., Mountain View, CA, USA). All quantitative data are presented as mean ± standard deviation (SD) or standard error of the mean (SEM), as indicated. Statistical analyses were performed using one-way analysis of variance (ANOVA) to assess differences among groups, followed by Tukey’s post hoc test for multiple comparisons. A p-value less than 0.05 (p < 0.05) was considered statistically significant.

[2] = tested on: rat intestinal segments; assay: In situ single-pass rat intestinal perfusion (Peff); format: in vivo, Sprague–Dawley rats; details: low-permeability reference, 100 µg/mL in perfusion buffer
Description: The in situ single-pass intestinal effective permeability (Peff) of AT/DT dispersed in 0.5% DMSO and AT/DT-NE#E was evaluated in rats. Sprague–Dawley rats were selected due to their well-characterized gastrointestinal physiology, suitability for serial perfusion sampling, and widespread use in oral absorption and permeability studies. Prior to the procedure, the rats were fasted for 12–16 h with free access to water. Anesthesia was induced via intramuscular injection of a tiletamine·HCl–zolazepam mixture (1:1, w/w; 40 mg/kg). With the animals in a supine position, a midline longitudinal incision was made to expose the abdominal cavity. […]
After a 30 min equilibration period to establish steady-state conditions, outlet perfusates were collected at 15 min intervals over a period of 120 min. […] It was perfused under identical conditions, and fluorescence was measured at excitation/emission wavelengths of 494/512 nm using a multimode microplate reader (PerkinElmer).
Body temperature was maintained throughout the experiment using heated pads and a heat lamp. At the end of the study, the length and radius of each perfused intestinal segment were carefully measured without stretching. […]
The outlet concentrations of AT and DT were quantified via HPLC as described previously. […]

Cmax ([1]; plasma, IV, DT 5 mg/kg) [ng/mL] | AUC(0-inf) ([1]; plasma, IV, DT 5 mg/kg) [ng·h/mL] | AUC(0-t) ([1]; plasma, IV, DT 5 mg/kg) [ng·h/mL] | half-life ([1]; plasma, IV, DT 5 mg/kg) [h] | Tmax ([1]; plasma, oral, DT 10 mg/kg) [h] | bioavailability ([1]; plasma, oral, DT 10 mg/kg) [%] | AUC(0-inf) ([1]; plasma, oral, DT 10 mg/kg) [ng·h/mL] | AUC(0-t) ([1]; plasma, oral, DT 10 mg/kg) [ng·h/mL] | half-life ([1]; plasma, oral, DT 10 mg/kg) [h] | Cmax of DT ([1]; oral, DT 10 mg/kg) [ng/mL] | Peff [2] | SMILES
479 ± 45.3 | 4190 ± 264 | 1450 ± 109 | 8.33 ± 7.84 | 8 | 7.22 ± 0.924 | 264 ± 38.3 | 210 ± 26.8 | 8.67 ± 0.881 | 21.0 ± 5.17 |  | CC(=O)O[C@@]12CO[C@@H]1C[C@H](O)[C@@]1(C)C(=O)[C@H](O)C3=C(C)[C@@H](OC(=O)[C@H](O)[C@@H](NC(=O)OC(C)(C)C)c4ccccc4)C[C@@](O)([C@@H](OC(=O)c4ccccc4)[C@H]21)C3(C)C [DT, Docetaxel]
 |  |  |  |  |  |  |  |  |  | 0.001 ± 0.002 ×10^−4 cm/s | O=C1OC2(c3ccc(O)cc3Oc3cc(O)ccc32)c2ccccc21 [fluorescein]
